These results are taken from patent US9518022B2, “Anti-HIV compounds” (priority 2014, dated 2016).

Each structure is given as a SMILES string.

The nature of the data set: Cytotoxicity assay (AlamarBlue) in mock infected MT-2 cells. In kind it is cell-based. Particulars: human. The procedure:
The present assay was used to screen candidate antiviral compounds by quantification of virus spread and production over several rounds of infection in vitro. MT-2, a HIV-1 permissive human T-cell line, was seeded in microtiter plates and was simultaneously treated with serially diluted compound and inoculated with a HIV-1 NL4-3 viral clone engineered to express Renilla luciferase in place of Nef. Following treatment, the culture was incubated for 96 hours. After the incubation, media was collected and used to estimate relative infectivity on the indicator cell line, TZM-bl. Additionally, viral spread was quantified by measuring luciferase activity via a commercially available luciferase substrate. In parallel, MT-2 cells were seeded and inoculated with mock virus in the presence of serially diluted compound. Compound toxicity was quantified 96 hours after treatment with AlamarBlue.
MT-2 (NIH Aids reagent program 237) cells were grown and maintained in an incubator at 37° C. with 5% CO2 using a basal medium of RPMI-1640 supplemented with 10% FBS. Cells were seeded in 100 μl at 2×10^4 cells/well in white walled 96-well microtiter plates. Candidate compounds were 3-fold serially diluted in the appropriate solvent. Solvent without compound was used as a no drug reference. Cells were inoculated at a multiplicity of 0.027 with an HIV-1 NL4-3 virus stock engineered to express Renilla luciferase in place of Nef. Diluted virus stock was first added to serially diluted compound. Compound and virus were delivered to cells in an equal volume (100 μl) and treated cultures were returned to the incubator for 96 hours. In parallel, plates for cytotoxicity estimates were prepared in the same way except cells were plated in clear walled 96-well microtiter plates and were mock infected.
At 96 hours post treatment, 20 μl AlamarBlue proliferation reagent was added to 200 μl treated and mock infected cultures and incubated for 3 hours at 37° C. with 5% CO2 then read at 545, 590 nm on fluorescence plate reader (Biotek).
For all assays, data was imported into Accelrys Assay Explorer 3.3. In Assay Explorer, % inhibition (antiviral or cytotoxicity) was calculated using the solvent control as a reference by the following equation: 1−(SignalCompound/SignalReference). The % Inhibition and compound concentration data was fitted using the following 4-parameter logistic model (Assay Explorer model 42):
[formula] where X is compound concentration, Y is % inhibition, D is the maximum % Inhibition (constrained to 100%), C is IC50 value or inflection point, B is the hill slope, and A is the minimum % inhibition (constrained to 0%). The IC50 value is reported as the EC50 or CC50 depending on the assay endpoint. EC50 represents the effective concentration at which virus replication is inhibited by 50 percent. CC50 represents the concentration that results in the death of 50 percent of the host cells. The selectivity or therapeutic index (SI or TI), is the ratio of CC50 over EC50 and represents the relative effectiveness in inhibiting viral replication compared to inducing cell death.

`COc1cc(F)c(/C=C/C2NCCc3cc(OCc4ccccc4)c(OC)cc32)c(F)c1` (centres unmarked) [BU, 6-(benzyloxy)-1-[(E)-2-(2,6-difluoro-4-methoxyphenyl)ethenyl]-7-methoxy-1,2,3,4-tetrahydroisoquinoline]: the midpoint of cytotoxicity, the CC50 at 96 h, lay at 10.6 µM.

Take `COc1cc(C)c(/C=C/C2NCCc3cc(OCc4ccccc4)c(OC)cc32)cc1C` (centres unmarked) [BV, 6-(benzyloxy)-7-methoxy-1-[(E)-2-(4-methoxy-2,5-dimethylphenyl)ethenyl]-1,2,3,4-tetrahydroisoquinoline]: the midpoint of cytotoxicity, the CC50 at 96 h, lay at 2.63 µM.

For `COc1cc2c(cc1OCc1ccccc1)CCNC2/C=C/c1cc(C(C)C)c(OC)cc1C` (centres unmarked) [BW, 6-(benzyloxy)-7-methoxy-1-[(E)-2-[4-methoxy-2-methyl-5-(propan-2-yl)phenyl]ethenyl]-1,2,3,4-tetrahydroisoquinoline], the CC50 (in general, the concentration giving 50% cytotoxicity) at 96 h stood at 1.88 µM.

In the case of `COc1cc2c(cc1OCc1ccccc1)CCNC2/C=C/c1cc(OCC(C)(C)C)c(OC)cc1C` (centres unmarked) [BX, 6-(benzyloxy)-1-[(E)-2-[5-(2,2-dimethylpropoxy)-4-methoxy-2-methylphenyl]ethenyl]-7-methoxy-1,2,3,4-tetrahydroisoquinoline], the CC50 at 96 h was 3.4 µM.

The compound `COc1cc2c(cc1OCc1ccccc1)CCNC2/C=C/c1cc(OCC2CCNCC2)c(OC)cc1C` (centres unmarked) [BY, 6-(benzyloxy)-7-methoxy-1-[(E)-2-[4-methoxy-2-methyl-5-(piperidin-4-ylmethoxy)phenyl]ethenyl]-1,2,3,4-tetrahydroisoquinoline] returned a CC50 at 96 h of 1.97 µM.

`COc1cc2c(cc1OCc1ccccc1)CCNC2/C=C/c1ccc(S(C)(=O)=O)cc1` (centres unmarked) [BZ, 6-(benzyloxy)-1-[(E)-2-(4-methanesulfonylphenyl)ethenyl]-7-methoxy-1,2,3,4-tetrahydroisoquinoline] came in with a CC50 at 96 h of 1 µM.

Regarding `COc1ccc(/C=C/C2NCCc3cc(OCc4ccccc4)c(OC)cc32)c(OC)n1` (centres unmarked) [CA, 6-(benzyloxy)-1-[(E)-2-(2,6-dimethoxypyridin-3-yl)ethenyl]-7-methoxy-1,2,3,4-tetrahydroisoquinoline], it took 15.3 µM to reach half-maximal cytotoxicity (CC50 at 96 h).

With `COc1cc2c(cc1OCc1ccccc1)CCNC2/C=C/c1ccc2c(c1)CCCO2` (centres unmarked) [CB, 6-(benzyloxy)-1-[(E)-2-(3,4-dihydro-2H-1-benzopyran-6-yl)ethenyl]-7-methoxy-1,2,3,4-tetrahydroisoquinoline], the CC50 at 96 h was 5.36 µM.

`COc1cc2c(cc1OCc1ccccc1)CCNC2/C=C/c1c(C)ccc2c1OCCC2` (centres unmarked) [CC, 6-(benzyloxy)-7-methoxy-1-[(E)-2-(7-methyl-3,4-dihydro-2H-1-benzopyran-8-yl)ethenyl]-1,2,3,4-tetrahydroisoquinoline] registered a CC50 at 96 h of 5.44 µM.

Take `COc1cc(C)c(/C=C/C2NCCc3cc(OCc4ccccc4)c(OC)cc32)cc1OCCCCN=[N+]=[N-]` (centres unmarked) [CD, 1-[(E)-2-[5-(4-azidobutoxy)-4-methoxy-2-methylphenyl]ethenyl]-6-(benzyloxy)-7-methoxy-1,2,3,4-tetrahydroisoquinoline]: the CC50 at 96 h was 1.63 µM.

On to `COc1cc2c(cc1OCc1ccccc1)CCNC2/C=C/c1cc2c(cc1C)OCCC2` (centres unmarked) [CE, 6-(benzyloxy)-7-methoxy-1-[(E)-2-(7-methyl-3,4-dihydro-2H-1-benzopyran-6-yl)ethenyl]-1,2,3,4-tetrahydroisoquinoline], for which the CC50 at 96 h was 4.87 µM.

Regarding `COc1cc2c(cc1OCc1ccccc1)CCNC2/C=C/c1cccc2c1OCCC2` (centres unmarked) [CF, 6-(benzyloxy)-1-[(E)-2-(3,4-dihydro-2H-1-benzopyran-8-yl)ethenyl]-7-methoxy-1,2,3,4-tetrahydroisoquinoline], the CC50 at 96 h came out at 9.1 µM.

`COc1cc2c(cc1OCc1ccccc1)CCNC2/C=C/c1cc2c(cc1C)OCC2` (centres unmarked) [CG, 6-(benzyloxy)-7-methoxy-1-[(E)-2-(6-methyl-2,3-dihydro-1-benzofuran-5-yl)ethenyl]-1,2,3,4-tetrahydroisoquinoline]: it took 4.8 µM to reach half-maximal cytotoxicity (CC50 at 96 h).

Take `COc1cc2c(cc1OCc1ccccc1)CCNC2/C=C/c1cc2ccccc2n1C(=O)OC(C)(C)C` (centres unmarked) [CH, tert-butyl 2-[(E)-2-[6-(benzyloxy)-7-methoxy-1,2,3,4-tetrahydroisoquinolin-1-yl]ethenyl]-1H-indole-1-carboxylate]: it took 3.48 µM to reach half-maximal cytotoxicity (CC50 at 96 h).

`COc1cc2c(cc1OCc1ccccc1)CCNC2/C=C/c1cn(C(=O)OC(C)(C)C)c2ccccc12` (centres unmarked) [CI, tert-butyl 3-[(E)-2-[6-(benzyloxy)-7-methoxy-1,2,3,4-tetrahydroisoquinolin-1-yl]ethenyl]-1H-indole-1-carboxylate] returned a CC50 at 96 h of 4.98 µM.

The compound `COc1cc2c(cc1OCc1ccccc1)CCNC2/C=C/c1c[nH]c2ccccc12` (centres unmarked) [CJ, 6-(benzyloxy)-1-[(E)-2-(1H-indol-3-yl)ethenyl]-7-methoxy-1,2,3,4-tetrahydroisoquinoline] gave a CC50 at 96 h of 6.55 µM.

Turning to `CCOC(=O)CCCOc1cc(/C=C/C2NCCc3cc(OCc4ccccc4)c(OC)cc32)ccc1OC` (centres unmarked) [CV, ethyl 4-{5-[(E)-2-[6-(benzyloxy)-7-methoxy-1,2,3,4-tetrahydroisoquinolin-1-yl]ethenyl]-2-methoxyphenoxy}butanoate], the midpoint of cytotoxicity, the CC50 at 96 h, lay at 2.7 µM.

For `COc1cc2c(cc1OCc1ccccc1)CCNC2/C=C/c1ccccc1NC(=O)OC(C)(C)C` (centres unmarked) [CW, tert-butyl N-{2-[(E)-2-[6-(benzyloxy)-7-methoxy-1,2,3,4-tetrahydroisoquinolin-1-yl]ethenyl]phenyl}carbamate], the CC50 at 96 h was found to be 23.6 µM.

As for `COc1cc2c(cc1OCc1ccccc1)CCNC2/C=C/c1ccccc1N` (centres unmarked) [CX, 2-[(E)-2-[6-(benzyloxy)-7-methoxy-1,2,3,4-tetrahydroisoquinolin-1-yl]ethenyl]aniline], the midpoint of cytotoxicity, the CC50 at 96 h, lay at 20.8 µM.

Take `COc1cc2c(cc1OCc1ccccc1)CCNC2/C=C/c1ccc(OC)c(C(F)(F)F)c1` (centres unmarked) [CY, 6-(benzyloxy)-7-methoxy-1-[(E)-2-[4-methoxy-3-(trifluoromethyl)phenyl]ethenyl]-1,2,3,4-tetrahydroisoquinoline]: half-maximal cytotoxicity (CC50 at 96 h) was put at 4 µM.

`COc1cc2c(cc1OCc1ccccc1)CCNC2/C=C/c1cc(C)c(OC)c(C(F)(F)F)c1` (centres unmarked) [CZ, 6-(benzyloxy)-7-methoxy-1-[(E)-2-[4-methoxy-3-methyl-5-(trifluoromethyl)phenyl]ethenyl]-1,2,3,4-tetrahydroisoquinoline]: the midpoint of cytotoxicity, the CC50 at 96 h, lay at 4 µM.

For the compound `COc1cc2c(cc1OCc1ccccc1)CCNC2/C=C/c1ccccc1C(F)(F)F` (centres unmarked) [DA, 6-(benzyloxy)-7-methoxy-1-[(E)-2-[2-(trifluoromethyl)phenyl]ethenyl]-1,2,3,4-tetrahydroisoquinoline], the CC50 at 96 h came to 10 µM.

With `COc1cc2c(cc1OCc1ccccc1)CCNC2/C=C/c1cccc(C(F)(F)F)c1` (centres unmarked) [DB, 6-(benzyloxy)-7-methoxy-1-[(E)-2-[3-(trifluoromethyl)phenyl]ethenyl]-1,2,3,4-tetrahydroisoquinoline], half-maximal cytotoxicity (CC50 at 96 h) was put at 10 µM.

On to `COc1cc2c(cc1OCc1ccccc1)CCNC2/C=C/c1ccccc1N(C)C` (centres unmarked) [DC, 2-[(E)-2-[6-(benzyloxy)-7-methoxy-1,2,3,4-tetrahydroisoquinolin-1-yl]ethenyl]-N,N-dimethylaniline], for which the CC50 at 96 h is 10 µM.

`COCCOc1ccccc1/C=C/C1NCCc2cc(OCc3ccccc3)c(OC)cc21` (centres unmarked) [DE, 6-(benzyloxy)-7-methoxy-1-[(E)-2-[2-(2-methoxyethoxy)phenyl]ethenyl]-1,2,3,4-tetrahydroisoquinoline] returned a CC50 at 96 h of 10 µM.

`COc1cc2c(cc1OCc1ccccc1)CCNC2/C=C/c1ccc2c(c1)OC(F)(F)O2` (centres unmarked) [DF, 6-(benzyloxy)-1-[(E)-2-(2,2-difluoro-2H-1,3-benzodioxol-5-yl)ethenyl]-7-methoxy-1,2,3,4-tetrahydroisoquinoline] displayed a CC50 at 96 h of 10 µM.

As for `COc1ccccc1/C=C/C1NCCc2cc(OCc3ccccc3)c(OC)cc21` (centres unmarked) [DG, 6-(benzyloxy)-7-methoxy-1-[(E)-2-(2-methoxyphenyl)ethenyl]-1,2,3,4-tetrahydroisoquinoline], the CC50 at 96 h is 9 µM.

In turn, `COc1cc2c(cc1OCc1ccccc1)CCNC2/C=C/c1ccccc1N1CCOCC1` (centres unmarked) [DH, 6-(benzyloxy)-7-methoxy-1-[(E)-2-[2-(morpholin-4-yl)phenyl]ethenyl]-1,2,3,4-tetrahydroisoquinoline] displayed a CC50 at 96 h of 17.8 µM.

Compound `COc1ccc2cc(/C=C/C3NCCc4cc(OCc5ccccc5)c(OC)cc43)ccc2c1` (centres unmarked) [DI, 6-(benzyloxy)-7-methoxy-1-[(E)-2-(6-methoxynaphthalen-2-yl)ethenyl]-1,2,3,4-tetrahydroisoquinoline] yielded a CC50 at 96 h of 5.84 µM.
